From article PMC4780071, “Discovery of a Biological Mechanism of Active Transport through the Tympanic Membrane to the Middle Ear” (Scientific Reports, 2016)

Legend:
[1] = test system: tympanic membrane (TM) of rats with active bacterial OM; assay: Comparative TM transit of individual phage clones in vivo (plaque assay of ME fluid); parameters: species or system rat (male Sprague-Dawley), NTHi-induced OM; details: for TM-transit rate into the ME compared with WT phage and the other clones: phage clone displaying the peptide, 1 × 10^10 phage particles on one TM for 1 hr, six rats, plaque assay of ME fluid; for phage particles in the ME after 1 hr incubation of the peptide-phage on the TM: 10^10 PFUs applied, mean of six animals
Method: (§1) All animal experiments were performed in strict accordance to the Guide for the Care and Use of Laboratory Animals of the National Institutes of Health (NIH) and the policies of the Veterans Affairs San Diego Healthcare Systems, CA. Experiments were carried out in strict accordance with an approved Institutional Animal Care and Use Committee (IACUC) protocol. Male Sprague–Dawley rats were purchased from The Jackson Laboratory. The animals were anesthetized with an intraperitoneal injection of 1.0–1.5 ml per 200–300 g bodyweight of rodent cocktail (40 mg/Kg Ketamine, 10 mg/Kg Xylasine, and 0.75 mg/Kg Acepromazine). The skin of the neck was shaved and treated with Povidone antiseptic solution. OM was induced by infecting the ME with nontypeable Haemophilus influenzae (NTHi) in a laboratory setting by surgically exposing the bulla via a ventral approach through a vertical midline incision made in the neck. A 25-gauge needle was used to fenestrate the bulla and inject ~50 μL saline solution containing 10^4 CFU/mL NTHi bacteria strain 3655 (biotype II, originally isolated from the ME of a pediatric OM patient). Following the inoculation, the opening was closed and incision was stapled. The TMs were visually confirmed to be intact after surgery and the rats were given Lactated Ringer’s solution and buprenorphine subcutaneously postoperatively. For in vivo phage display experiments, rats were used at two days post NTHi inoculation. The ears were examined otoscopically at this time to confirm signs of active infection and the presence of fluid in the ME cavity.
After three or ten rounds of subtraction/selection in strategies 1 and 2 respectively, single blue plaques were selected at random for preparation of purified stocks and sequencing as recommended by the manufacturer (New England Biolabs, Cambridge, MA, USA). Phage transit efficiency was determined by incubating 1 × 10^10 PFUs (plaque-forming units) of specific phage over the TMs of rats in vivo for 1 hr. At least six animals per time point were used. Incubation, washings, and elution conditions were performed as above. The phage transiting efficiency was determined by comparing the number of plaque-forming phage recovered from the ME fluid (output) by the number of plaque-forming phage in the input (TM side).
We quantified the rate of TM transit into the ME for all peptides identified by Strategy 1 (Fig. 3A) and those from Strategy 2 (Fig. 3B) that appeared at a frequency of three or more in our sequenced sample (Tables 1 and 2). Individual phage clones were amplified and 1 × 10^10 phage particles were applied onto one TM of six anesthetized rats for 1 hr. The number of phage particles recovered from the ME was then compared to that observed for WT (untargeted) phage. […] On the other hand, the peptide sequence of BPT-4 was clearly distinct in the phylogeny analysis.

[2] = test system: tympanic membrane (TM) of rats with OM; assay: Transport kinetics and saturation of TMT-3 phage in vivo; parameters: species or system rat (male Sprague-Dawley), NTHi-induced OM; details: for phage recovery from the ME: at least six animals per time point
Method: as §1
The phage peptide with one of the highest transport capacities measured above TMT-3 SADSTKTTHLTL, was selected for further transport specificity, kinetics and competitive binding assays. To evaluate the kinetics of transport of the TMT-3 single phage clone, a TMT-3 phage preparation was incubated on the TM over a 1, 2 or 4 hr time period at 1 × 10^10 PFU concentration. At least six animals per time point were used. Incubation, washing, and elution conditions were performed as above in rats with OM. The level of phage transport was evaluated by determining the titer (PFUs) of TMT-3 phage present in the ME fluid. To assess transport saturation, the recovery of TMT-3 phage from the ME was compared following application of 10^10 versus 10^12 phage particles to the TM for 1 hr. The corresponding free peptide SHSADSTKTTHLTLGGG was synthesized by Genscript (Piscataway, NJ, USA) in addition to an untargeted randomized control peptide SHDLSTSATLTHTKGGG (Genscript, Piscataway, NJ, USA) at purity >95%. All peptides were reconstituted in PBS pH, 7.2. For the competition assay TMT-3 phage application to the TM was performed at titer of 10^10 PFUs, as above. However, 1 μM of free peptide was included with the phage.

[3] = test system: healthy (uninfected) tympanic membrane; assay: TMT-3 phage transport across TMs of uninfected MEs; assay type: in vivo, rat; details: n = 6, data not shown
From the text: To establish the specificity of translocation, we assessed whether a synthetic TMT-3 peptide would interfere with internalization of corresponding peptide-bearing phage into the ME. […] In addition, TMT-3 phage was applied onto the TMs of uninfected MEs (n = 6). We observed that for healthy TMs, phage transport into the ME was quite limited when compared to the infected TM (data not shown). This could be attributed to limitations in efficient phage transport when fluid is not present on the other side of the TM. Alternatively, it is possible that the transit mechanism employed is only present in infected TMs.

[4] = test system: TMs of ex vivo MEs from rats undergoing OM; assay: Ex vivo ME transport: dependence on time after death and temperature; parameters: species or system rat; details: for phage recovery through ex vivo TMs: warmed to 37 °C, 1 hr with phage
Method: In order to learn more about the pharmacokinetics mechanisms of transport, we tested the effect of varying metabolism or temperature on transport rates. […] MEs were removed intact from deeply anesthetized rats undergoing OM as described above. […] Translocation is also temperature dependent. […] It is well known that endocytosis is inhibited at 4 °C[36][37].

Row | Sequence | TM-transit rate into the ME compared with WT phage and the other clones [1] | phage particles in the ME after 1 hr incubation of the peptide-phage on the TM ([1]; 1 hr, rats with OM) | further results
1 | SDDSRPIAQFAI [TMT-5] | highest rates of transport | – | –
2 | THPSTKVPGTPA [BPT-3] | highest rates of transport | more than 2 × 10^3 phage particles | –
3 | SADSTKTTHLTL [TMT-3, transport tests used the phage clone] | highest rates of transport | more than 2 × 10^3 phage particles | recovery from the ME among the six positive phage clones ([1]; 10^10 PFUs, 1 hr, rats with OM): greatest recovery from the ME; dependence of phage recovery on time on the TM ([2]; 1, 2 and 4 hrs of contact with the infected TM, 1 × 10^10 PFU): exponential increase; dependence of phage recovery on the amount applied (saturation) ([2]; 10^10 versus 10^12 phage particles applied to the TM for 1 hr): increased proportionally with concentration; phage recovery from the ME ([2]; 1 hr of contact with the infected TM, 1 × 10^10 PFU): approximately 10^4 phage particles; phage recovery from the ME ([2]; 4 hrs of contact with the infected TM, 1 × 10^10 PFU): ~10^6 phage particles; phage transport into the ME through healthy TMs compared to the infected TM [3]: quite limited; ME recovery of phage ex vivo ([4]; 4 °C, 1 hr exposure of the TM to 10^10 PFUs): severely compromised; phage recovery through ex vivo TMs ([4]; TMs stored 12 hrs postmortem at 4 °C): No recovery; phage recovery through ex vivo TMs ([4]; TMs stored 24 hrs postmortem at 4 °C): No recovery
4 | TLSPKMPGGGYW [TMT-2] | highest rates of transport | more than 2 × 10^3 phage particles | –
5 | TFNPPPPQMPST [BPT-4] | highest rates of transport | more than 2 × 10^3 phage particles | –
6 | DVGAGRWFSDNG [TMT-4] | highest rates of transport | more than 2 × 10^3 phage particles | –
